Results taken from publication PMC7496508, “Modular Medical Imaging Agents Based on Azide–Alkyne Huisgen Cycloadditions: Synthesis and Pre‐Clinical Evaluation of ^18F‐Labeled PSMA‐Tracers for Prostate Cancer Imaging” (Chemistry (Weinheim an Der Bergstrasse, Germany), 2020).
“And” between values parts separate entries of the source, which are not always exact repeats. Equal entries are not always repeated.

Key:
[1] = distribution coefficient logD, n-octanol/PBS; assay type: physicochemical
Procedure: page 19: Figure S3: HPLC purification of [18F]PSMA-MIC02 (A) and after 4 h (B). 5. Distribution coefficient LogD. […] cup. 100 µL of the formulated final solution of [18F]PSMA-MIC01 or [18F]PSMA-MIC02 was added and vortexed for 1 minute and centrifuged for 5 min at […]. The different layers were separated and 100 µL of each layer were measured on a γ-counter. Based on the counts per minute (CPM) of each fraction, the partition coefficient was measured with the following formula: log(CPMoctanol/CPMPBS). The obtained data are as followed. Table S2. Counts per minute (CPM) of the 3 indidicually measured triplicates of [18F]PSMA-MIC01 of n- octanol and PBS. Octanol (CPM) PBS (CPM) BLK (CPM) LogD Mean SD […] No 1.2 2823.43 2715328.33 93.59 -2.99 […] No 2.3 394.49 640463.84 93.59 -3.21 […] No 3.2 3690.69 2357291.58 50.84 -2.81 No 3.3 5848.38 3956671.48 52.31 -2.83 -3.01 0.22 18 (1 picture or pasted object on this page, not shown here)

[2] = radiotracer stability in formulation, radio-HPLC; assay type: physicochemical; details: 10 % EtOH/PBS, 4 h
Procedure: Clinical translation requires higher amounts of radioactivity than those manually achievable, which are limited by radiation burden for the radiochemist. Therefore, the synthesis of [^18F]PSMA‐MIC01 was automated on a FlowSafe radiosynthesis module, a continuous‐flow microfluidics platform (see Supporting Information for details). [^18F]PSMA‐MIC01 was produced in an overall RCY of 21 % with an overall production time of 139 min (see Supporting Information for experimental details). The higher RCY can be explained by the use of the microfluidic set up for the [^18F]fluorination towards intermediate [^18F]9. Microfluidic systems have a higher surface‐to‐volume ratio which results in an increased heat transfer capacity compared to in‐batch syntheses.62 This enabled reduction of the effective reaction time of the [^18F]fluorination to 75 s with concomitant reduction of ^18F‐side‐products and increased the intermediary RCY of [^18F]9 to 42 % and overall RCY to 21 %. […] The measured lipophilicity (logD) in n‐octanol/PBS was −3.01±0.22 (see Supporting Information). […]
The stabilities of [18F]PSMA-MIC01 and [18F]PSMA-MIC02 were tested, to ensure the integrity of the tracer in solution. […] After purification and formulation into an injectable solution of 10 % EtOH in PBS, the radiotracer was analysed by HPLC again (B),which was repeated after 2 h (C) and 4 h (D). […]

- logD ([1]; n-octanol/PBS, pH 7.4, n-octanol/PBS pH 7.4, overall mean): -3.01 ± 0.22
Structure (SMILES): O=C(O)CC[C@H](NC(=O)N[C@@H](CCCCNC(=O)c1ccc(-c2cn(CCOCCOCC[18F])nn2)cc1)C(=O)O)C(=O)O [[^18F]PSMA‐MIC01]
- LogD, individual measurements ([1]; n-octanol/PBS pH 7.4, single measurements): -3.03 and -2.99 and -3.02 and -3.27 and -3.20 and -3.21 and -2.72 and -2.81 and -2.83
- stability of the radiotracer [2]: No degradation products could be detected
